Measurements taken from patent US6683079B2, “3-(amino-or aminoalkyl) pyridinone derivatives and their use for the treatment of HIV related diseases” (Centre National de la Recherche Scientifique, priority 1998, dated 2004).

How the values were obtained:
[1] = test system: HIV-1 strain 103 N; experiment: Retrovirucidal effect on HIV-1 strain 103 N (Table 3); type: cell-based; conditions: HIV-1 strain 103N (RT Lys-103 to Asn mutant); pIC50=-log IC50, IC50 in M
Experimental: (§1) HIV-1 viral suspensions were obtained by coculture of MT4 cells and H9 cells chronically infected by HIV-ILai isolate. 200 μl of a cell supernatant containing viral particles (HIV-ILai: 100 TCID50) were incubated at room temperature with various concentrations of different inhibitors. After 3 hours, virions were washed through 0.02 μm anopore membrane in 1.5 mL Vectaspin tube (Whatman) for 10 minutes at 5 000 g. Each of the three subsequent washes was performed in the same conditions after the viral concentrate was refilled with 500 μL of RPMI medium. Then, the viral concentrate was readjusted to the initial volume with RPMI plus 10% foetal calf serum (FCS). The residual infectivity was assayed on P4 cells as described by CHARNEAU et al. (1994, J. Mol. Biol., 241, 651-662). Briefly, P4 cells were plated using 100 μL of DMEM medium plus 10% FCS in 96 plate multi-wells at 20×10^5 cells per mL. After overnight incubation at 37° C., the supernatant was discarded and the viral preparation (200 μL) was added. One day later the wells were washed three times in PBS. Each well was refilled with 200 μL of a reaction buffer containing 50 mM Tris-HCl pH 8.5, 100 mM 2-mercaptoethanol, 0.05% Triton X-100 and 5 mM 4-methylumbelliferyl β-D-galactopyranoside (MUG). After 3 hours at 37° C., the level of the reaction was measured in a fluorescence microplate reader.
(§2) The retrovirucidal effect of each pyridinone derivative listed in table 3 has been assayed according to the teachings of example 2, excepted that the anti-viral effect has been tested on the two following HIV-1 strains:
b) HIV-1 strain 103 N which is a mutant strain bearing a point mutation in the reverse transcriptase gene leading to an enzyme wherein the initial Lys-103 residue is replaced for a Asn residue.
The HIV-1 103 N strain has also been described by SAHLBERG et al.,(1998, Antiviral Res., 37 (3): ASS) and BALZARiNI et al. (1996, Antimicrobial Agents and Chemotherapy, 40 (6): 1454-1466).

[2] = test system: HIV-1 strain IIIB; experiment: Retrovirucidal effect on HIV-1 strain IIIB (Table 3); type: cell-based; conditions: pIC50=-log IC50, IC50 in M
Experimental: as §1, §2
a) HIV-1 strain IIIB (see example 2);

Row | Structure (SMILES) | HIV1 pIC50 strain 103N [1] | HIV1 pIC50 strain IIIB [2]
1 | CCc1c(C)[nH]c(=O)c(N(C)C)c1Cc1cc(C)ccc1C [Compound 37] | 5.729 | 6.796
2 | CCc1c(C)[nH]c(=O)c(N(C)C)c1Cc1cc(C)cc(C)c1 [Compound 3] | 7.438 | 8.004
3 | CCc1c(C)[nH]c(=O)c(N(CC)CC)c1Cc1cc(C)cc(C)c1 [Compound 12] | 6.363 | 8.022
4 | CCc1c(C)[nH]c(=O)c(N(C)C)c1CN(C)Cc1ccccc1 [Compound 102] | <4 | 4.369
5 | CCc1c(C)[nH]c(=O)c(N(C)CC=C(C)C)c1Cc1cccc(C)c1 [Compound 164] | 6.505 | 7.818
6 | Cc1cc(C)cc(Cc2cc[nH]c(=O)c2N(C)C)c1 [Compound 16] | 4.401 | 5.061
7 | CCc1c(C)[nH]c(=O)c(N)c1Cc1ccc(-c2ccccc2)cc1 [Compound 49] | <5 | <4
8 | CCc1c(C)[nH]c(=O)c(N)c1C(OC)c1cc(C)cc(C)c1 (stereo not shown) [Compound 73] | 6.92 | 8.027
9 | CCc1c(C)[nH]c(=O)c(N(C)C)c1C(O)Cc1cccc(C)c1 (stereo not shown) [Compound 165] | <4 | 4.354
10 | Cc1cccc(Cc2c(C)c(C)[nH]c(=O)c2N)c1 [Compound 85] | <4 | 4.954
11 | CCc1c(C)[nH]c(=O)c(N)c1C(=O)c1ccc(OC)c(C)c1 [Compound 168] | 4.806 | 4.525
12 | CCc1c(Cc2cc(C)cc(C)c2)c(N(C)C)c(=O)n(CC)c1C [Compound 45] | 4.095 | 5.519
13 | CCc1c(C)[nH]c(=O)c(N(C)C(C)COC)c1Cc1cc(C)cc(C)c1 (stereo not shown) [Compound 129] | 7.057 | 8.398
14 | CCc1c(C)[nH]c(=O)c(N(C)C)c1C(=O)c1ccc(OC)c(C)c1 [Compound 169] | 5.771 | 7.101
15 | Cc1cc(C)cc(Cc2c3c([nH]c(=O)c2N(C)C)CCCC3)c1 [Compound 173] | 6.489 | 8.086
16 | CCc1c(Cc2cc(C)cc(C)c2)c(N(C)C)c(=O)n(Cc2ccccc2)c1C [Compound 22] | <4 | 4.603
17 | Cc1cc(C)cc(Cc2c3c([nH]c(=O)c2N)CCCC3)c1 [Compound 172] | 4.903 | 6.419
18 | CCc1c(C)[nH]c(=O)c(NCc2cc(C)c(C)cc2OC)c1Cc1cc(C)cc(C)c1 [Compound 4] | <4 | 5.094
19 | CCc1c(C)[nH]c(=O)c(N)c1CNCc1ccccc1 [Compound 80] | <4 | <4
20 | CCc1c(C)[nH]c(=O)c(N(Cc2ccccc2)Cc2ccccc2)c1Cc1cc(C)cc(C)c1 [Compound 25] | 4.259 | <4
21 | CCc1c(C)[nH]c(=O)c(N(C)C)c1Cc1ccc2ccccc2c1 [Compound 10] | 4.389 | 6.241
22 | CCc1c(C)[nH]c(=O)c(NC)c1Cc1cc(C)cc(C)c1 [Compound 46] | 7.034 | 8.119
23 | CCc1c(C)[nH]c(=O)c(N(C)C)c1CNc1ccc(C#N)cc1 [Compound 167] | 5.828 | 6.338
24 | CCc1c(C)[nH]c(=O)c(N)c1Cc1c(C)cc(C)cc1C [Compound 58] | <5 | <4
25 | CCc1c(C)[nH]c(=O)c(N(C)C)c1Cc1cccc(C(F)(F)F)c1 [Compound 57] | 6.414 | 8.086
26 | CCc1c(C)[nH]c(=O)c(N)c1Cc1cccc(Cl)c1 [Compound 39] | 4.751 | 5
